{
  "source": "patent EP4752149A1",
  "about": "“OXYGEN-CONTAINING FUSED TRICYCLIC DERIVATIVE, AND PREPARATION METHOD THEREFOR AND USE THEREOF” (Tuojie Biotech (Shanghai) Co., Ltd., priority 2023, dated 2025)",
  "system": "Ovarian cancer cells (OVCAR3)",
  "assay": "Inhibitory activity against ovarian cancer cells (OVCAR3), CTG cell viability",
  "format": "cell-based",
  "conditions": "Homo sapiens, OVCAR-3, 168 h, 7 days with compound",
  "method": "Ovarian cancer cells (OVCAR3) were cultured using an RPMI 1640 culture medium containing 10% FBS in a cell incubator (37 °C, 5% CO2). On day one, the cells were plated in a 384-well plate at a cell concentration of 800 cells/well and cultured overnight in an incubator. On day two, the cells were treated with compounds. The highest compound concentration was 10 µM and was diluted 3-fold to obtain 9 concentrations, and the final concentration of DMSO was 0.1%. After the cells were cultured in the incubator for another 7 days, the cell viability was tested using a CTG Cell Viability Detection Reagent (MCE); the testing method was consistent with the method provided by the kit. Data were processed using GraphPad Prism 8, and IC50 was calculated. [formula] X: the logarithm of the compound concentration; Y: inhibition%. Table 2. The IC50 (nM) of compounds of the present disclosure against OVCAR3",
  "data": [
    {"smiles": "C[C@H]1COc2c(-c3nc(Nc4ccc(S(C)(=N)=O)cc4F)ncc3F)cc(F)c3nc(C(C)(C)O)n1c23", "note": "(stereo partly drawn) [Example 15, (3-Fluoro-4-((5-fluoro-4-((S)-8-fluoro-2-(2-hydroxypropan-2-yl)-3-methyl-3,4-dihydro-5-oxa-1,2a-diazaacenaphthylen-6-yl)pyrimidin-2-yl)amino)phenyl)(methyl)sulfonimide]", "values": [
      {"measurement": "IC50", "value": 636, "unit": "nM"}
    ]},
    {"smiles": "CNC(=O)c1ccc(Nc2ncc(Cl)c(-c3cc(F)c4nc(C(C)(C)O)n5c4c3OC[C@@H]5C)n2)cc1", "note": "[Example 11, (S)-4-((5-Chloro-4-(8-fluoro-2-(2-hydroxypropan-2-yl)-3-methyl-3,4-dihydro-5-oxa-1,2a-diazaacenaphthylen-6-yl)pyrimidin-2-yl)amino)-N-methylbenzamide]", "values": [
      {"measurement": "IC50", "value": 673, "unit": "nM"}
    ]},
    {"smiles": "CNS(=N)(=O)c1ccc(Nc2ncc(Cl)c(-c3cc(F)c4nc(C(C)(C)O)n5c4c3OC[C@@H]5C)n2)c(F)c1", "note": "(stereo partly drawn) [Example 9, 4-((5-Chloro-4-((S)-8-fluoro-2-(2-hydroxypropan-2-yl)-3-methyl-3,4-dihydro-5-oxa-1,2a-diazaacenaphthylen-6-yl)pyrimidin-2-yl)amino)-3-fluoro-N-methylbenzenesulfonimide]", "values": [
      {"measurement": "IC50", "value": 752, "unit": "nM"}
    ]},
    {"smiles": "CC(O)c1nc2c(F)cc(-c3nc(Nc4ccc(N5CCOCC5=O)cc4F)ncc3F)c3c2n1[C@@H](C)CO3", "note": "(stereo partly drawn) [Example 21, 4-(3-Fluoro-4-((5-fluoro-4-((3S)-8-fluoro-2-(1-hydroxyethyl)-3-methyl-3,4-dihydro-5-oxa-1,2a-diazaacenaphthylen-6-yl)pyrimidin-2-yl)amino)phenyl)morpholin-3-one]", "values": [
      {"measurement": "IC50", "value": 260, "unit": "nM"}
    ]},
    {"smiles": "C[C@H]1COc2c(-c3nc(Nc4ccc(S(C)(=N)=O)cc4)ncc3F)cc(F)c3nc(C(C)(C)O)n1c23", "note": "(stereo partly drawn) [Example 17, (4-((5-Fluoro-4-((S)-8-fluoro-2-(2-hydroxypropan-2-yl)-3-methyl-3,4-dihydro-5-oxa-1,2a-diazaacenaphthylen-6-yl)pyrimidin-2-yl)amino)phenyl)(methyl)sulfonimide]", "values": [
      {"measurement": "IC50", "value": 154, "unit": "nM"}
    ]},
    {"smiles": "C[C@H]1COc2c(-c3nc(Nc4ccc(C(=O)N5CC[C@H](N(C)C)C5)cc4)ncc3Cl)cc(F)c3nc(C(C)(C)O)n1c23", "note": "[Example 40, (4-((5-Chloro-4-((S)-8-fluoro-2-(2-hydroxypropan-2-yl)-3-methyl-3,4-dihydro-5-oxa-1,2a-diazaacenaphthylen-6-yl)pyrimidin-2-yl)amino)phenyl)((S)-3-(dimethylamino)pyrrolidin-1-yl)methanone]", "values": [
      {"measurement": "IC50", "value": 364, "unit": "nM"}
    ]},
    {"smiles": "C[C@H]1COc2c(-c3nc(Nc4ccc(N5CCOCC5=O)cc4)ncc3F)cc(F)c3nc(C(C)(C)O)n1c23", "note": "[Example 18, (S)-4-(4-((5-Fluoro-4-(8-fluoro-2-(2-hydroxypropan-2-yl)-3-methyl-3,4-dihydro-5-oxa-1,2a-diazaacenaphthylen-6-yl)pyrimidin-2-yl)amino)phenyl)morpholin-3-one]", "values": [
      {"measurement": "IC50", "value": 103, "unit": "nM"}
    ]},
    {"smiles": "C[C@H]1COc2c(-c3nc(Nc4ccc(N5CCOCC5=O)c(Cl)c4)ncc3Cl)cc(F)c3nc(C(C)(C)O)n1c23", "note": "[Example 25, (S)-4-(2-Chloro-4-((5-chloro-4-(8-fluoro-2-(2-hydroxypropan-2-yl)-3-methyl-3,4-dihydro-5-oxa-1,2a-diazaacenaphthylen-6-yl)pyrimidin-2-yl)amino)phenyl)morpholin-3-one]", "values": [
      {"measurement": "IC50", "value": 409, "unit": "nM"}
    ]},
    {"smiles": "C[C@H]1COc2c(-c3nc(Nc4ccc(N5CCOCC5=O)cc4)ncc3Cl)cc(F)c3nc(C(C)(C)O)n1c23", "note": "[Example 10, (S)-4-(4-((5-Chloro-4-(8-fluoro-2-(2-hydroxypropan-2-yl)-3-methyl-3,4-dihydro-5-oxa-1,2a-diazaacenaphthylen-6-yl)pyrimidin-2-yl)amino)phenyl)morpholin-3-one]", "values": [
      {"measurement": "IC50", "value": 230, "unit": "nM"}
    ]},
    {"smiles": "C[C@H]1COc2c(-c3nc(Nc4ccc(N5CCOCC5=O)c(F)c4)ncc3Cl)cc(F)c3nc(C(C)(C)O)n1c23", "note": "[Example 24, (S)-4-(4-((5-Chloro-4-(8-fluoro-2-(2-hydroxypropan-2-yl)-3-methyl-3,4-dihydro-5-oxa-1,2a-diazaacenaphthylen-6-yl)pyrimidin-2-yl)amino)2-fluorophenyl)morpholin-3-one]", "values": [
      {"measurement": "IC50", "value": 255, "unit": "nM"}
    ]},
    {"smiles": "C[C@H]1COc2c(-c3nc(Nc4ccc(C(=O)N5CC[C@@H](N(C)C)C5)c(Cl)c4)ncc3Cl)cc(F)c3nc(C(C)(C)O)n1c23", "note": "[Example 38, (2-Chloro-4-((5-chloro-4-((S)-8-fluoro-2-(2-hydroxypropan-2-yl)-3-methyl-3,4-dihydro-5-oxa-1,2a-diazaacenaphthylen-6-yl)pyrimidin-2-yl)amino)phenyl)((R)-3-(dimethylamino)pyrrolidin-1-yl)methanone]", "values": [
      {"measurement": "IC50", "value": 690, "unit": "nM"}
    ]},
    {"smiles": "COCc1nc2c(F)cc(-c3nc(Nc4ccc(N5CCOCC5=O)cc4F)ncc3F)c3c2n1[C@@H](C)CO3", "note": "[Example 26, (S)-4-(3-Fluoro-4-((5-fluoro-4-(8-fluoro-2-(methoxymethyl)-3-methyl-3,4-dihydro-5-oxa-1,2a-diazaacenaphthylen-6-yl)pyrimidin-2-yl)amino)phenyl)morpholin-3-one]", "values": [
      {"measurement": "IC50", "value": 517, "unit": "nM"}
    ]},
    {"smiles": "C[C@H]1COc2c(-c3nc(Nc4ccc(N5CCC(N(C)C)CC5=O)cc4F)ncc3Cl)cc(F)c3nc(C(C)(C)O)n1c23", "note": "(stereo partly drawn) [Example 12, 1-(4-((5-Chloro-4-((S)-8-fluoro-2-(2-hydroxypropan-2-yl)-3-methyl-3,4-dihydro-5-oxa-1,2a-diazaacenaphthylen-6-yl)pyrimidin-2-yl)amino)-3-fluorophenyl)-4-(dimethylamino)piperidin-2-one]", "values": [
      {"measurement": "IC50", "value": 643, "unit": "nM"}
    ]},
    {"smiles": "CCN1CCN(C(=O)c2ccc(Nc3ncc(Cl)c(-c4cc(F)c5nc(C(C)(C)O)n6c5c4OC[C@@H]6C)n3)cc2F)CC1", "note": "[Example 32, (S)-(4-((5-Chloro-4-(8-fluoro-2-(2-hydroxypropan-2-yl)-3-methyl-3,4-dihydro-5-oxa-1,2a-diazaacenaphthylen-6-yl)pyrimidin-2-yl)amino)-2-fluorophenyl)(4-ethylpiperazin-1-yl)methanone]", "values": [
      {"measurement": "IC50", "value": 426, "unit": "nM"}
    ]},
    {"smiles": "C[C@H]1COc2c(-c3nc(Nc4ccc(C(=O)N5CC[C@@H](N(C)C)C5)cc4)ncc3Cl)cc(F)c3nc(C(C)(C)O)n1c23", "note": "[Example 42, (4-((5-Chloro-4-((S)-8-fluoro-2-(2-hydroxypropan-2-yl)-3-methyl-3,4-dihydro-5-oxa-1,2a-diazaacenaphthylen-6-yl)pyrimidin-2-yl)amino)phenyl)((R)-3-(dimethylamino)pyrrolidin-1-yl)methanone]", "values": [
      {"measurement": "IC50", "value": 674, "unit": "nM"}
    ]},
    {"smiles": "C[C@H]1COc2c(-c3nc(Nc4ccc(N5CCOCC5=O)cc4F)ncc3F)cc(F)c3nc(C4(O)CCC4)n1c23", "note": "[Example 28, (S)-4-(3-Fluoro-4-((5-fluoro-4-(8-fluoro-2-(1-hydroxycyclobutyl)-3-methyl-3,4-dihydro-5-oxa-1,2a-diazaacenaphthylen-6-yl)pyrimidin-2-yl)amino)phenyl)morpholin-3-one]", "values": [
      {"measurement": "IC50", "value": 137, "unit": "nM"}
    ]},
    {"smiles": "C[C@H]1COc2c(-c3nc(Nc4ccc(C(=O)N5CC[C@H](N(C)C)C5)c(F)c4)ncc3Cl)cc(F)c3nc(C(C)(C)O)n1c23", "note": "[Example 35, (4-((5-Chloro-4-((S)-8-fluoro-2-(2-hydroxypropan-2-yl)-3-methyl-3,4-dihydro-5-oxa-1,2a-diazaacenaphthylen-6-yl)pyrimidin-2-yl)amino)2-fluorophenyl)((S)-3-(dimethylamino)pyrrolidin-1-yl)methanone]", "values": [
      {"measurement": "IC50", "value": 202, "unit": "nM"}
    ]},
    {"smiles": "C[C@H]1COc2c(-c3nc(Nc4ccc(C(=O)N5CC[C@H](N(C)C)C5)c(Cl)c4)ncc3Cl)cc(F)c3nc(C(C)(C)O)n1c23", "note": "[Example 36, (2-Chloro-4-((5-chloro-4-((S)-8-fluoro-2-(2-hydroxypropan-2-yl)-3-methyl-3,4-dihydro-5-oxa-1,2a-diazaacenaphthylen-6-yl)pyrimidin-2-yl)amino)phenyl)((S)-3-(dimethylamino)pyrrolidin-1-yl)methanone]", "values": [
      {"measurement": "IC50", "value": 961, "unit": "nM"}
    ]},
    {"smiles": "Cc1nc2c(F)cc(-c3nc(Nc4ccc(N5CCOCC5=O)cc4F)ncc3F)c3c2n1[C@@H](C)CO3", "note": "[Example 6, (S)-4-(3-Fluoro-4-((5-fluoro-4-(8-fluoro-2,3-dimethyl-3,4-dihydro-5-oxa-1,2a-diazaacenaphthylen-6-yl)pyrimidin-2-yl)amino)phenyl)morpholin-3-one]", "values": [
      {"measurement": "IC50", "value": 80.2, "unit": "nM"}
    ]},
    {"smiles": "C[C@H]1COc2c(-c3nc(Nc4ccc(N5CCOCC5=O)cc4F)ncc3C#N)cc(F)c3nc(C(C)(C)O)n1c23", "note": "[Example 13, (S)-4-(8-Fluoro-2-(2-hydroxypropan-2-yl)-3-methyl-3,4-dihydro-5-oxa-1,2a-diazaacenaphthylen-6-yl)-2-((2-fluoro-4-(3-oxomorpholino)phenyl)amino)pyrimidine-5-carbonitrile]", "values": [
      {"measurement": "IC50", "value": 901, "unit": "nM"}
    ]},
    {"smiles": "C[C@H]1COc2c(-c3nc(Nc4ccc(CC#N)cc4)ncc3Cl)cc(F)c3nc(C(C)(C)O)n1c23", "note": "[Example 29]", "values": [
      {"measurement": "IC50", "value": 335, "unit": "nM"}
    ]},
    {"smiles": "C[C@H]1COc2c(-c3nc(Nc4ccc(N5CCOCC5=O)cc4F)ncc3F)cc(F)c3ncn1c23", "note": "[Example 2, (S)-4-(3-Fluoro-4-((5-fluoro-4-(8-fluoro-3-methyl-3,4-dihydro-5-oxa-1,2a-diazaacenaphthylen-6-yl)pyrimidin-2-yl)amino)phenyl)morpholin-3-one]", "values": [
      {"measurement": "IC50", "value": 47.5, "unit": "nM"}
    ]},
    {"smiles": "CNS(=O)(=O)c1ccc(Nc2ncc(F)c(-c3cc(F)c4nc(C(C)(C)O)n5c4c3OC[C@@H]5C)n2)c(F)c1", "note": "[Example 16, (S)-3-Fluoro-4-((5-fluoro-4-(8-fluoro-2-(2-hydroxypropan-2-yl)-3-methyl-3,4-dihydro-5-oxa-1,2a-diazaacenaphthylen-6-yl)pyrimidin-2-yl)amino)-N-methylbenzenesulfonamide]", "values": [
      {"measurement": "IC50", "value": 222, "unit": "nM"}
    ]},
    {"smiles": "CNS(=O)(=O)c1ccc(Nc2ncc(Cl)c(-c3cc(F)c4nc(C(C)(C)O)n5c4c3OC[C@@H]5C)n2)cc1", "note": "[Example 5, (S)-4-((5-Chloro-4-(8-fluoro-2-(2-hydroxypropan-2-yl)-3-methyl-3,4-dihydro-5-oxa-1,2a-diazaacenaphthylen-6-yl)pyrimidin-2-yl)amino)-N-methylbenzenesulfonamide]", "values": [
      {"measurement": "IC50", "value": 89.9, "unit": "nM"}
    ]}
  ]
}
